Results taken from patent US20260327214A1, “1,3,4-OXADIAZOLE DERIVATIVE COMPOUNDS AS HISTONE DEACETYLASE 6 INHIBITOR, AND USES THEREOF” (CHONG KUN DANG PHARMACEUTICAL CORP., priority 2022, published 2026).
pIC50: −log10 of the molar value.

Experiments:
human recombinant HDAC1 = molecular target: T1, human recombinant HDAC1 (Homo sapiens, UniProt Q13547); test: HDAC1 enzyme activity inhibition test (HDAC Fluorometric Drug Discovery Kit); type: biochemical; details: 30° C., 60 minutes, 10 μM substrate
T1 construct: purchased Enzo Life Science BML-SE456
Description: (§1) The following experiment was conducted to confirm the HDAC6 selectivity of the compound represented by Chemical Formula I of the present invention through the HDAC1 and HDAC6 enzyme activity inhibition test.
(§2) HDAC enzyme activity was measured using HDAC Fluorometric Drug Discovery Kit (BML-AK511, 516) manufactured by Enzo Life Science. For the HDAC1 enzyme activity test, human recombinant HDAC1 (BML-SE456) was used as an enzyme source and Fluor de Lys-®-″SIRT1 (BNL-KI177) was used as a substrate. The 5-fold diluted compound was dispensed in a 96-well plate, 0.3 μg of enzyme and 10 μM substrate were added to each well and reacted at 30° C. for 60 minutes, and Fluor de Lys® Developer II(BML-KI176) was added and reacted for 30 minutes to complete the reaction. Then, the fluorescence value (Ex 360, Em 460) was measured using a multiplate reader (Flexstation 3, Molecular Device). The HDAC6 enzyme was tested using the same protocol as the HDAC1 enzyme activity test method employing human recombinant HDAC6 (382180) from Calbiochem. For the final result, each […] value was calculated using the GraphPad Prism 4.0 program.

human recombinant HDAC6 = molecular target: T2, human recombinant HDAC6 (Homo sapiens, UniProt Q9UBN7); test: HDAC6 enzyme activity inhibition test (HDAC Fluorometric Drug Discovery Kit); type: biochemical; details: for HDAC6 selectivity (fold): HDAC6 over HDAC1; for pIC50: human recombinant HDAC6, same protocol as HDAC1
T2 construct: purchased Calbiochem 382180
T2 sequence (Q9UBN7 1-1215): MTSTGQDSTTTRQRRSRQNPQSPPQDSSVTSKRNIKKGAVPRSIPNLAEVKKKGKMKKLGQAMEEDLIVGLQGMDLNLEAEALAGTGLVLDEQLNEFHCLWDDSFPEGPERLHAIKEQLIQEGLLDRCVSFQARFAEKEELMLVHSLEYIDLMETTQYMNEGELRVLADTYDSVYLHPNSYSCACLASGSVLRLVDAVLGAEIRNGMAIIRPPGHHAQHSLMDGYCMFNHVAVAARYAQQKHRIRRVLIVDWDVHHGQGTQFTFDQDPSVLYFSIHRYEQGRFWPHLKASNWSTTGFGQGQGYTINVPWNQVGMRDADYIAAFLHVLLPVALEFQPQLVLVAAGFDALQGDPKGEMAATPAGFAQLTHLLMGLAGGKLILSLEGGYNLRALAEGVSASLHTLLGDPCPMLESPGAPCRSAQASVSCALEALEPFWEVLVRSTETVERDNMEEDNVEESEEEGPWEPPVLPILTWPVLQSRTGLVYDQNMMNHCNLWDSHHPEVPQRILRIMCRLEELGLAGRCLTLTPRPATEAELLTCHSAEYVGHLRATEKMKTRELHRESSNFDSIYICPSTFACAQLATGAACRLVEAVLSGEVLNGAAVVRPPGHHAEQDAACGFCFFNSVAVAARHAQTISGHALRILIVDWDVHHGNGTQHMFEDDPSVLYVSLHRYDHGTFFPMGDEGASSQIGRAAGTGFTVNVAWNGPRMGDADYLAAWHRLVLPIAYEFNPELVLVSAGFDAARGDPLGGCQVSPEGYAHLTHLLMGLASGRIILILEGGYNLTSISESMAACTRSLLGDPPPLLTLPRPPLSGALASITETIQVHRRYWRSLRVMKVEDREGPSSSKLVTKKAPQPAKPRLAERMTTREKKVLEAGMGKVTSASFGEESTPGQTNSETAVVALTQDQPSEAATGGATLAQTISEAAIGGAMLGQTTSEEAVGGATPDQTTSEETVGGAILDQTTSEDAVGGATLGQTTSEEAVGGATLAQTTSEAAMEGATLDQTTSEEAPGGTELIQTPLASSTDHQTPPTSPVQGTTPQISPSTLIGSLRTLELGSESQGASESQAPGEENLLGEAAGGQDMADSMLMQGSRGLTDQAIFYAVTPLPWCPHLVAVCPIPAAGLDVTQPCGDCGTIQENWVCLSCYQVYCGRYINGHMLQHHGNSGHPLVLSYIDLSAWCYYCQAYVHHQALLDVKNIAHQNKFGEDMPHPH
Description: as §1, §2

T1 sequence (Q13547 whole entry): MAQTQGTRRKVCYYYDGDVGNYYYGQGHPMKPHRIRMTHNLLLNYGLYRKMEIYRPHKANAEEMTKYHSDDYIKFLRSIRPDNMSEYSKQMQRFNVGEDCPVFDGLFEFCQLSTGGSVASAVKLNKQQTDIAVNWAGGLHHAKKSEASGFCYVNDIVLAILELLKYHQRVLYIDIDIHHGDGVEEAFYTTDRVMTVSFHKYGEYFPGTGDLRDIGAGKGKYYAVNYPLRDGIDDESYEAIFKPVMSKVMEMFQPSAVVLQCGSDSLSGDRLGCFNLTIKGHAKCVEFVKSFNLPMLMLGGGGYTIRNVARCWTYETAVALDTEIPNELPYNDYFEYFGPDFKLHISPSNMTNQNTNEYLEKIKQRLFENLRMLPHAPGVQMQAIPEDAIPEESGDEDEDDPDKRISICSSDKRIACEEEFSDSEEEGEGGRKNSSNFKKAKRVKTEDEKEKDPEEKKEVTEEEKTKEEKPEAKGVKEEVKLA

| pIC50 (human recombinant HDAC1) | HDAC6 selectivity (fold) (human recombinant HDAC6) | pIC50 (human recombinant HDAC6) | Compound |
| --- | --- | --- | --- |
| < 4.30 | 416 | 6.92 | O=c1oc(-c2ccccc2)nn1Cc1ccc(-c2nnc(C(F)F)o2)cn1 [Compound 1, 3-((5-(5-(difluoromethyl)-1,3,4-oxadiazol-2-yl)pyridin-2-yl)methyl)-5-phenyl-1,3,4-oxadiazol-2 (3H)-one] |
| < 4.30 | 506 | 7.01 | O=c1oc(-c2ccc(CN3CCCC3)cc2)nn1Cc1ccc(-c2nnc(C(F)F)o2)cn1 [Compound 2, 3-((5-(5-(difluoromethyl)-1,3,4-oxadiazol-2-yl)pyridin-2-yl)methyl)-5-(4-(pyrrolidin-1-ylmethyl)phenyl)-1,3,4-oxadiazol-2(3H)-one] |
| < 4.30 | 3497 | 7.84 | O=c1oc(-c2ccc3[nH]ccc3c2)nn1Cc1ccc(-c2nnc(C(F)F)o2)cn1 [Compound 3, 3-[[5-[5-(difluoromethyl)-1,3,4-oxadiazol-2-yl]-2-pyridyl]methyl]-5-(1H-indol-5-yl)-1,3,4-oxadiazol-2-one] |
| < 4.30 | 595 | 7.08 | CC1CCN(Cc2ccc(-c3nn(Cc4ccc(-c5nnc(C(F)F)o5)cn4)c(=O)o3)c(F)c2)CC1 [Compound 4, 3-[[5-[5-(difluoromethyl)-1,3,4-oxadiazol-2-yl]-2-pyridyl]methyl]-5-[2-fluoro-4-[(4-methyl-1-piperidyl)methyl]phenyl]-1,3,4-oxadiazol-2-one] |
| < 4.30 | 589 | 7.07 | O=c1oc(-c2cccs2)nn1Cc1ccc(-c2nnc(C(F)F)o2)cn1 [Compound 5, 3-[[5-[5-(difluoromethyl)-1,3,4-oxadiazol-2-yl]-2-pyridyl]methyl]-5-(2-thienyl)-1,3,4-oxadiazol-2-one] |
| < 4.30 | 1078 | 7.33 | CC(C)N1CCN(c2cccc(-c3nn(Cc4ccc(-c5nnc(C(F)F)o5)cn4)c(=O)o3)n2)CC1 [Compound 6, 3-[[5-[5-(difluoromethyl)-1,3,4-oxadiazol-2-yl]-2-pyridyl]methyl]-5-[6-(4-isopropylpiperazin-1-yl)-2-pyridyl]-1,3,4-oxadiazol-2-one] |
| < 4.30 | 600 | 7.08 | O=c1oc(-c2cccc(N3CCN(C4COC4)CC3)n2)nn1Cc1ccc(-c2nnc(C(F)F)o2)cn1 [Compound 7, 3-[[5-[5-(difluoromethyl)-1,3,4-oxadiazol-2-yl]-2-pyridyl]methyl]-5-[6-[4-(oxetane-3-yl)piperazin-1-yl]-2-pyridyl]-1,3,4-oxadiazol-2-one] |
| < 4.30 | 546 | 7.04 | CN1CCC(c2cccc(-c3nn(Cc4ccc(-c5nnc(C(F)F)o5)cn4)c(=O)o3)c2)CC1 [Compound 8, 3-[[5-[5-(difluoromethyl)-1,3,4-oxadiazol-2-yl]-2-pyridyl]methyl]-5-[3-(1-methyl-4-piperidyl)phenyl]-1,3,4-oxadiazol-2-one] |
| < 4.30 | 585 | 7.07 | O=c1oc(-c2cccc(C3CCN(C4COC4)CC3)c2)nn1Cc1ccc(-c2nnc(C(F)F)o2)cn1 [Compound 9, 3-[[5-[5-(difluoromethyl)-1,3,4-oxadiazol-2-yl]-2-pyridyl]methyl]-5-[3-[1-(oxetane-3-yl)-4-piperidyl]phenyl]-1,3,4-oxadiazol-2-one] |
| < 4.30 | 666 | 7.12 | CC1CC(N2CCC(c3cccc(-c4nn(Cc5ccc(-c6nnc(C(F)F)o6)cn5)c(=O)o4)c3)CC2)C1 (stereo not drawn) [Compound 10, 3-[[5-[5-(difluoromethyl)-1,3,4-oxadiazol-2-yl]-2-pyridyl]methyl]-5-[3-[1-(3-methylcyclobutyl)-4-piperidyl]phenyl]-1,3,4-oxadiazol-2-one] |
| < 4.30 | 607 | 7.08 | CN1CCc2ccc(-c3nn(Cc4ccc(-c5nnc(C(F)F)o5)cn4)c(=O)o3)cc2C1 [Compound 12, 3-[[5-[5-(difluoromethyl)-1,3,4-oxadiazol-2-yl]-2-pyridyl]methyl]-5-(2-methyl-3,4-dihydro-1H-isoquinolin-7-yl)-1,3,4-oxadiazol-2-one] |
| < 4.30 | 475 | 6.98 | CC(C)N1CCc2ccc(-c3nn(Cc4ccc(-c5nnc(C(F)F)o5)cn4)c(=O)o3)cc2C1 [Compound 13, 3-[[5-[5-(difluoromethyl)-1,3,4-oxadiazol-2-yl]-2-pyridyl]methyl]-5-(2-isopropyl-3,4-dihydro-1H-isoquinolin-7-yl)-1,3,4-oxadiazol-2-one] |
| < 4.30 | 478 | 6.98 | O=c1oc(-c2ccc3c(c2)CN(C2CCC2)CC3)nn1Cc1ccc(-c2nnc(C(F)F)o2)cn1 [Compound 14, 5-(2-cyclobutyl-3,4-dihydro-1H-isoquinolin-7-yl)-3-[[5-[5-(difluoromethyl)-1,3,4-oxadiazol-2-yl]-2-pyridyl]methyl]-1,3,4-oxadiazol-2-one] |
| < 4.30 | 524 | 7.02 | O=c1oc(-c2ccccc2F)nn1Cc1ccc(-c2nnc(C(F)F)o2)cn1 [Compound 15, 3-[[5-[5-(difluoromethyl)-1,3,4-oxadiazol-2-yl]-2-pyridyl]methyl]-5-(2-fluorophenyl)-1,3,4-oxadiazol-2-one] |
| < 4.30 | 551 | 7.04 | O=c1oc(-c2ccsc2)nn1Cc1ccc(-c2nnc(C(F)F)o2)cn1 [Compound 16, 3-[[5-[5-(difluoromethyl)-1,3,4-oxadiazol-2-yl]-2-pyridyl]methyl]-5-(3-thienyl)-1,3,4-oxadiazol-2-one] |
| < 4.30 | 1089 | 7.34 | O=c1oc(-c2ccc3cccnc3c2)nn1Cc1ccc(-c2nnc(C(F)F)o2)cn1 [Compound 17, 3-[[5-[5-(difluoromethyl)-1,3,4-oxadiazol-2-yl]-2-pyridyl]methyl]-5-(7-quinolyl)-1,3,4-oxadiazol-2-one] |
| < 4.30 | 768 | 7.19 | O=c1oc(-c2ccc3scnc3c2)nn1Cc1ccc(-c2nnc(C(F)F)o2)cn1 [Compound 18, 5-(1,3-benzothiazol-5-yl)-3-[[5-[5-(difluoromethyl)-1,3,4-oxadiazol-2-yl]-2-pyridyl]methyl]-1,3,4-oxadiazol-2-one] |
| < 4.30 | 1511 | 7.48 | Cn1ccc2cc(-c3nn(Cc4ccc(-c5nnc(C(F)F)o5)cn4)c(=O)o3)ccc21 [Compound 19] |
| < 4.30 | 653 | 7.12 | O=c1oc(-c2ccc(N3CCNCC3)cc2)nn1Cc1ccc(-c2nnc(C(F)F)o2)cn1 [Compound 20, 3-[[5-[5-(difluoromethyl)-1,3,4-oxadiazol-2-yl]-2-pyridyl]methyl]-5-(4-piperazin-1-ylphenyl)-1,3,4-oxadiazol-2-one] |
| < 4.30 | 446 | 6.95 | CN1CCN(c2ccc(-c3nn(Cc4ccc(-c5nnc(C(F)F)o5)cn4)c(=O)o3)cc2)CC1 [Compound 21, 3-[[5-[5-(difluoromethyl)-1,3,4-oxadiazol-2-yl]-2-pyridyl]methyl]-5-[4-(4-methylpiperazin-1-yl)phenyl]-1,3,4-oxadiazol-2-one] |
